How the values were obtained:
[1] = tested on: mouse MD-SCs (MS01); experiment: Incucyte confluency and CC-3/7 assay; format: cell-based
[2] = Pharmacokinetic study, plasma and sciatic nerve after single oral gavage; format: in vivo, NSG mice; conditions: for Tmax: both sexes, NOD.Cg-Prkdcscid Il2rgtm1Wjl/SzJ (NSG), mouse, plasma, po, read-out: time of maximum plasma concentration; for penetration of blood-nerve barrier / detection in intact nerve: single oral gavage
Excerpt: The UCF animal facility is accredited by the Association for Assessment and Accreditation of Laboratory Animal Care. A total of 50 six- to eight-week-old mice were used for pharmacokinetic studies. […] Drugs were delivered via 0.5% methylcellulose, 0.2% Tween 80, 10% DMSO vehicle. Ten mice (three per drug and one control receiving vehicle alone) were used at each time point. Collected samples were frozen and sent to Cyprotex (Watertown, MA, USA) for LC-MS/MS quantitation of drug levels. Pharmacokinetic calculations were performed using the PKSolver software. The plasma half-life (t½) was calculated as the time required to reduce by half the plasma concentration after reaching pseudo-equilibrium and is not the time required to eliminate half the administered dose. An additional LC-MS/MS analyses of a subset of the treated mice (see below) was conducted. […] Three mice from each treatment group were selected randomly at the end of the in vivo study to assess the levels of drug in plasma, intact control nerve, and tumor. Samples were collected 4h after the final oral gavage, frozen, and sent to Cyprotex for analysis.

[3] = tested on: estrogen receptor positive breast cancer patients; conditions: addition of pictilisib to fulvestrant; cited from earlier work
[4] = tested on: MS01 cells; experiment: Proteome Profiler Mouse Apoptosis Array; format: cell-based; conditions: MS01, pictilisib 2.5 μM 6h vs vehicle
Protocol: (§1) Human HS02 MD-SCs and mouse MTC-10 (MS01) MD-SCs cell lines were used. […] Cells were lysed and procedure was performed according to the Proteome Profiler Human or Mouse Apoptosis Array Kit (Cat No: ARY009 for Human, Cat No: ARY031 for Mouse, Biotechne, Minneapolis, MA, USA). Arrays were visualized using the Jess System (Biotechne), densitometry was measured and normalized to reference spots using ImageJ Software (NIH, Bethesda, MD, USA). Calculations were carried out using Prism 9 Software (GraphPad, Boston, MA, USA).

[5] = tested on: HS01 cells (human MD-SC); experiment: Cell viability (CellTiter-Fluor) and Combenefit synergy, 10x10 matrix; format: cell-based; conditions: HS01 72h, read-out: % Control cell viability; for viability at 0.03906 µM: single drug 39.06 nM; for viability at 0.07813 µM: single drug 78.13 nM; for viability at 0.15625 µM: single drug 156.25 nM; for viability at 0.3125 µM: single drug 312.5 nM; for viability at 0.625 µM: single drug 625 nM; for viability at 1.25 µM: single drug 1250 nM; for viability at 2.5 µM: single drug 2500 nM; for viability at 5 µM: single drug 5000 nM; for viability at 10 µM: single drug 10000 nM
Protocol: (§2) Drugs used in this study are listed with their targets in Table S1. All drugs were obtained from SelleckChem (Houston, TX, USA), apart from (−)-B-Hydrastine (Santa Cruz Biotechnology, Dallas, TX, USA). Drugs were dissolved in DMSO (10 mM stock). MD-SCs were seeded in 384-well CellBind Corning plates at 1000 cells/well in phenol red-free media. After attachment, cells were treated with drugs at 10 concentrations in a 10×10 matrix. Mouse cells were treated for 48h and human cells for 72h prior to assessment of cell viability with CellTiter-Fluor Assay (Promega, Madison, WI, USA). All drugs were tested in at least two human MD-SC lines. Follow up testing was performed on a subset of combinations using the mouse MD-SC line. Matrix combination data was uploaded into the Combenefit software system to assess drug synergy using three methods (Loewe, Bliss, and HSA)([18]).

[6] = tested on: HS03 cells (human MD-SC); experiment: as above; format: cell-based; conditions: HS03 72h, read-out: % Control cell viability; for viability at 0.03906 µM: single drug 39.06 nM; for viability at 0.07813 µM: single drug 78.13 nM; for viability at 0.15625 µM: single drug 156.25 nM; for viability at 0.3125 µM: single drug 312.5 nM; for viability at 0.625 µM: single drug 625 nM; for viability at 1.25 µM: single drug 1250 nM; for viability at 2.5 µM: single drug 2500 nM; for viability at 5 µM: single drug 5000 nM; for viability at 10 µM: single drug 10000 nM
Protocol: as §2

[7] = tested on: MS01 cells (mouse MD-SC); experiment: as above; format: cell-based; conditions: MS01 48h, read-out: % Control cell viability; for viability at 0.03906 µM: single drug 39.06 nM; for viability at 0.07813 µM: single drug 78.13 nM; for viability at 0.15625 µM: single drug 156.25 nM; for viability at 0.3125 µM: single drug 312.5 nM; for viability at 0.625 µM: single drug 625 nM; for viability at 1.25 µM: single drug 1250 nM; for viability at 2.5 µM: single drug 2500 nM; for viability at 5 µM: single drug 5000 nM; for viability at 10 µM: single drug 10000 nM
Protocol: as §2

[8] = tested on: luminal B breast cancer; conditions: adding pictilisib to anastrozole; cited from earlier work
[9] = tested on: patients with advanced solid tumors; conditions: phase 1, advanced solid tumors; cited from earlier work
[10] = tested on: glioblastoma xenografts; design: method as in PMID 19584227; conditions: cited from earlier work
[11] = tested on: HS02 cells; experiment: Proteome Profiler Human Apoptosis Array; format: cell-based; conditions: HS02, pictilisib 2.5 μM 6h vs vehicle
Protocol: as §1

[12] = tested on: ovarian cancer xenografts; design: method as in PMID 19584227; conditions: cited from earlier work
[13] = tested on: human MD-SCs (HS02, HS05); conditions: human MD-SC lines, Incucyte
Protocol: (§3) Human HS11, HS01, HS02, HS13 and HS05 and mouse MTC-10 cells (1,000 cells/well) were seeded in growth medium in three replicate wells/condition of a 384-well CellBIND Corning plate. […] Wells were imaged using the Incucyte® S5 Live-Cell Analysis system (Sartorius) for 24–72h. Phase and green fluorescent images were collected every 2h and analyzed using the integrated basic analyzer software.

[14] = tested on: patients with advanced solid tumors; conditions: pictilisib combined with the MEK inhibitor cobimetinib; cited from earlier work
[15] = tested on: HS01 cells; experiment: Incucyte live cell imaging, confluence and cleaved caspase 3/7; format: cell-based, human; conditions: HS01, 72h time course
Protocol: as §3

[16] = tested on: human MD-SCs; experiment: Cell viability of MD-SC lines, monotherapy EC50 and combination synergy; format: cell-based
Protocol: as §2

[17] = tested on: MS01-Luc allografts (mouse MD-SCs); experiment: Immunohistochemistry of allograft tumors; format: in vivo, NSG mice; conditions: tumors after 14 days of treatment, n = 4/group
[18] = Drug levels in plasma, control nerve and tumor at end of in vivo study; design: species or system NSG mice; conditions: 4h after final oral gavage, 14 days of daily treatment
Excerpt: Male and female NOD.Cg-Prkdcscid Il2rgtm1Wjl/SzJ (NSG) mice were bred in house and all care and use was approved by the University of Central Florida (UCF) Institutional Animal Care and Usage Committee (IACUC; #19 – 05, approved 04/08/2019). The UCF animal facility is accredited by the Association for Assessment and Accreditation of Laboratory Animal Care. A total of 50 six- to eight-week-old mice were used for pharmacokinetic studies. […] Drugs were delivered via 0.5% methylcellulose, 0.2% Tween 80, 10% DMSO vehicle. Ten mice (three per drug and one control receiving vehicle alone) were used at each time point. Collected samples were frozen and sent to Cyprotex (Watertown, MA, USA) for LC-MS/MS quantitation of drug levels. Pharmacokinetic calculations were performed using the PKSolver software. The plasma half-life (t½) was calculated as the time required to reduce by half the plasma concentration after reaching pseudo-equilibrium and is not the time required to eliminate half the administered dose. An additional LC-MS/MS analyses of a subset of the treated mice (see below) was conducted. This was done to determine whether PF-3758309 was accessible to the tumor neo-vasculature that can differ from that of the organ/tissue housing the tumor. […]

In the case of `CS(=O)(=O)N1CCN(Cc2cc3nc(-c4cccc5[nH]ncc45)nc(N4CCOCC4)c3s2)CC1` [Pictilisib], the CC-3/7 signal [1] is reported as “high CC-3/7 signal”, the confluency [1] is reported as “low confluency” and the Tmax [2] is reported as 1 h. The “penetration of blood-nerve barrier / detection in intact nerve” value ([2]; single agent) was “penetrated the normal blood-nerve barrier”, the “time of maximum nerve concentration” value ([2]; single agent, single oral gavage 75 mg/kg) was 1 h and the dose-limiting toxicity [3] was “limited by toxicity”. The progression-free survival [3] was “did not significantly improve progression-free survival”, the CC-3 protein level [4] was “significant increase” and the “anti-apoptotic proteins Bcl-2, Bcl-x and XIAP” value [4] was “significant decrease”. It also gave a viability at 0.03906 µM [5] of 88%, a viability at 0.07813 µM [5] of 85% and a viability at 0.15625 µM [5] of 78%. For the same compound, the viability at 0.3125 µM [5] was 72%, the viability at 0.625 µM [5] was 72% and the viability at 1.25 µM [5] was 66%. It also gave a viability at 2.5 µM [5] of 66%, a viability at 5 µM [5] of 64% and a viability at 10 µM [5] of 65%. For the same compound, the viability at 0.03906 µM [6] was 93%, the viability at 0.07813 µM [6] was 97% and the viability at 0.15625 µM [6] was 94%. For the same compound, the viability at 0.3125 µM [6] was 89%, the viability at 0.625 µM [6] was 86% and the viability at 1.25 µM [6] was 79%. For the same compound, the viability at 2.5 µM [6] was 68%, the viability at 5 µM [6] was 72% and the viability at 10 µM [6] was 77%. The viability at 0.03906 µM [7] was 81%, the viability at 0.07813 µM [7] was 78% and the viability at 0.15625 µM [7] was 70%. It also gave a viability at 0.3125 µM [7] of 65%, a viability at 0.625 µM [7] of 65% and a viability at 1.25 µM [7] of 54%. It also gave a viability at 2.5 µM [7] of 53%, a viability at 5 µM [7] of 50% and a viability at 10 µM [7] of 55%. The “suppression of tumor cell proliferation” value [8] was “significantly increased suppression of tumor cell proliferation”, the tolerability [9] was “well tolerated” and the growth inhibition [10] was 98%. The “CC-3, Bcl-2 and Bcl-x protein levels” value [11] was “no difference”, the XIAP protein level [11] was “significant increase” and the growth inhibition [12] was 80%. For the same compound, the confluency [13] was “significantly reduced confluency” and the tolerability and efficacy [14] was “limited tolerability and efficacy”.

For `COc1ccc(-c2nc(N3CCOCC3)c3sc(CN(C)c4ncc(C(=O)NO)cn4)cc3n2)cn1` [CUDC907], the “cleaved caspase 3/7 (CC3/7) signal” value [15] was “high CC-3/7 signal starting at 14h”.

`COc1ncc(-c2ccc3nccc(-c4ccnnc4)c3c2)cc1NS(=O)(=O)c1ccc(F)cc1F` [omipalisib] gave an EC50 [16] of 2 nM.

For `Cc1nc(Nc2n[nH]c3c2CN(C(=O)N[C@H](CN(C)C)c2ccccc2)C3(C)C)c2sccc2n1` [PF-3758309], the “Ki67 staining (cell proliferation)” value [17] was “significantly decreased cell proliferation”, the YAP staining reduction [17] was “statistically significant” and the “half-life in plasma, together with pictilisib versus alone” value ([2]; PF-3758309 25 mg/kg oral) was “similar”. For the same compound, the “maximum concentration in plasma” value ([2]; PF-3758309 25 mg/kg oral, alone) was 110 ng/mL, the “maximum concentration in plasma” value ([2]; PF-3758309 25 mg/kg oral, co-administered with pictilisib 75 mg/kg) was 341 ng/mL and the Tmax [2] was 2 h. The “detection in normal nerve” value ([2]; co-administered with pictilisib) was “remained undetected in normal nerve”, the “penetration of blood-nerve barrier / detection in intact nerve” value ([2]; single agent) was “not detected in the intact nerve” and the viability at 0.03906 µM [5] was 71%. The viability at 0.07813 µM [5] was 66%, the viability at 0.15625 µM [5] was 67% and the viability at 0.3125 µM [5] was 65%. The viability at 0.625 µM [5] was 65%, the viability at 1.25 µM [5] was 67% and the viability at 2.5 µM [5] was 59%. It also gave a viability at 5 µM [5] of 40%, a viability at 10 µM [5] of 21% and a viability at 0.03906 µM [6] of 72%. For the same compound, the viability at 0.07813 µM [6] was 67%, the viability at 0.15625 µM [6] was 63% and the viability at 0.3125 µM [6] was 64%. The viability at 0.625 µM [6] was 62%, the viability at 1.25 µM [6] was 59% and the viability at 2.5 µM [6] was 56%. The viability at 5 µM [6] was 44%, the viability at 10 µM [6] was 23% and the viability at 0.03906 µM [7] was 61%. For the same compound, the viability at 0.07813 µM [7] was 57%, the viability at 0.15625 µM [7] was 50% and the viability at 0.3125 µM [7] was 48%. For the same compound, the viability at 0.625 µM [7] was 43%, the viability at 1.25 µM [7] was 40% and the viability at 2.5 µM [7] was 35%. For the same compound, the viability at 5 µM [7] was 24%, the viability at 10 µM [7] was 7% and the drug in tumor [18] was “bioavailable in the tumor”.
